These results are taken from article PMC5587766, “Towards designer organelles by subverting the peroxisomal import pathway” (Nature Communications, 2017).

For data set [1] the following is noted: lissamine-labelled peptide, not pursued in FA assay.
Another data set addresses AtPEX5 TPR domain. Particulars: cited from earlier work. From the text: The pentapeptide library sequences were based on YQSKL, which has a nM affinity for the AtPEX5 TPR domain[17] and is widely used as a model PTS1 peptide. This sequence was randomized at the two C-terminal positions to create a library of sequences, YQSXX, where X represents any amino acid, which was efficiently prepared using split-and-pool solid-phase peptide synthesis. A dansyl fluorophore introduced at the N-terminus of the peptide added hydrophobicity to improve retention in LC-MS analysis. Deconvolution of Leu- and Ile-containing peptides was enabled by preparation of four sub-librari ...

Data set [2] deals with naturally occurring PEX5 receptor. The experiment in a line: PEX5 (naturally occurring receptor) binding of orthogonal peptide (overall statement). From the text:
PEX5 is a modular protein: the C-terminal domain recognizes PTS1 within a funnel-shaped pocket created by 7 α-helical tetratricopeptide repeats (TPRs)[14], while the N-terminal domain of PEX5, which is natively unstructured, is responsible for the docking, cargo delivery, and recycling functions of the receptor[10]. […] The PEX5*-PTS1* pair was discovered by assessing the binding of a range of variants of the C-terminal domain of Arabidopsis thaliana PEX5 (AtPEX5C) with a library of pentapeptides (Fig. 1a). […] PTS1* has low affinity for the naturally occurring PEX5 receptor. Following optimization, the C-terminal PEX5* sequence was combined with the N-terminal domain of PEX5 from the moss Physcomitrella patens (Phypa PEX5N) to create a fully functional PEX5* receptor (Fig. 1a). Concomitant expression of PEX5* with a cargo protein bearing PTS1* results in targeting of the cargo to the peroxisome at the expense of naturally occurring peroxisomal components—a process that was easily visualized in moss cells using fluorescent reporter proteins (Fig. 1b).

A further data set addresses T1, AtPEX5C D505H (Arabidopsis thaliana, UniProt Q9FMA3 340-728, D505H).
T1 construct: Made by site-directed mutagenesis of His6-AtPEX5 (340-728) in pET-28b; also called D505H variant of AtPEX5C; source: E. coli BL21-Gold (DE3), purified (Co-NTA)
T1 sequence (looked up): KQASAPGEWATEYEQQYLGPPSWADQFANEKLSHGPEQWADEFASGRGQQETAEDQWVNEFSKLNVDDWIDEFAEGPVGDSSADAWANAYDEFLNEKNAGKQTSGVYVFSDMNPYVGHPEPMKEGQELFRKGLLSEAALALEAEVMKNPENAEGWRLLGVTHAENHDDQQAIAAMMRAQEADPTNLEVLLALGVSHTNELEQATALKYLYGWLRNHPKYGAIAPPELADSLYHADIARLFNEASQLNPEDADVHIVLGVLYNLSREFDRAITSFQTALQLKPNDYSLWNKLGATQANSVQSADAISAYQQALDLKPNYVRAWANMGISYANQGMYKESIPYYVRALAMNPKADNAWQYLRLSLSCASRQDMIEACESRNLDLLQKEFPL
The experiment in a line: pull-down; His6-protein (12.5 µM) incubated with the combined dansyl-YQSXX library (500 nM each peptide) in 50 mM Na2HPO4, 300 mM NaCl, 10 mM 2-mercaptoethanol, 15% glycerol, pH 8.0, 4 °C, 1 h; captured on Co-NTA resin, washed, bound peptides eluted with 6 M urea and identified by ESI-LC-MS; semi-quantitative. Particulars: both partners purified.

Another data set has as its target T2, AtPEX5C N601A (Arabidopsis thaliana, UniProt Q9FMA3 340-728, N601A).
T2 construct: Made by site-directed mutagenesis of His6-AtPEX5 (340-728) in pET-28b; also called N601A variant; source: E. coli BL21-Gold (DE3), purified (Co-NTA)
T2 sequence (looked up): T1 sequence (looked up) with H166D, N262A
The description is as above. Particulars: both partners purified.

Where a chain is given by its changes, count along the chain named. The star is where a group is joined. Dansyl = CN(C)c1cccc2c(S(=O)(=O)*)cccc12

On to lissamine-labelled YQSFY, for which the solubility result in data set [1] is reported as “poor solubility”.
For the molecule YQSKL [model PTS1 peptide], the “affinity for AtPEX5 TPR domain” value at AtPEX5 TPR domain is on record as “nM affinity”.
As to “WWRDPYSPMYQSYY [PTS1*, YQSYY including enhancing upstream residues]”, the “affinity for naturally occurring PEX5 receptor” value in data set [2] is “low affinity”.

B1: dansyl-YQSFY (peptide)
peptide: Dansyl-YQSFY-OH
SMILES: CN(C)c1cccc2c(S(=O)(=O)N[C@@H](Cc3ccc(O)cc3)C(=O)N[C@@H](CCC(N)=O)C(=O)N[C@@H](CO)C(=O)N[C@@H](Cc3ccccc3)C(=O)N[C@@H](Cc3ccc(O)cc3)C(=O)O)cccc12
notes: member of the YQSXX pentapeptide library; Tested within the combined library of 324 peptides, not alone; source: synthetic peptide, member of the split-and-pool dansyl-YQSXX library
As to B1, the binding result in the data set with AtPEX5C D505H and with AtPEX5C N601A was “binds” in each case.
